The values below are quoted from earlier work in US10183062B2, “Treatment for cancer” (The University of Nottingham, priority 2013, dated 2019).

The Km is the substrate concentration at which the rate is half of its maximum.

In series [1] the test system is Vibrio fischeri FRase I variant F124W. As to conditions: Swe et al., 2012, cited from earlier work.
The subject of series [2] is BliNTR, NTR from Bacillus licheniformis. As to conditions: Emptage et al., 2009, cited from earlier work.
Series [3] has as its system E. coli NfnB nitroreductase, wild type. Conditions: Knox et al., 1992, cited from earlier work.
Series [4] relates to E. coli NfnB variant N71S/F124K. As to conditions: Searle et al., 2004 and Race et al., 2007, cited from earlier work.
The test system of series [5] is E. coli NfsA nitroreductase. As to conditions: Vass et al., 2009, cited from earlier work; for Km: read-out: Km^CB1954.

Read-outs that look alike come from different tables or passages of the source.

Take `NC(=O)c1cc(N2CC2)c([N+](=O)[O-])cc1[N+](=O)[O-]` [CB1954, 5-(aziridin-1-yl)-2,4-dinitrobenzamide]: the Kcat in series [1] (CB1954) is given as 26.6 S^−1; in series [2] (CB1954) it was 6.4 S^−1; in series [3] (CB1954), 6 S^−1; in series [4] (CB1954), 7.5 S^−1; in series [5] (CB1954, cofactor NADH), 2.60 (NADH) S^−1; in series [5] (CB1954, cofactor NADPH), 20.9 (NADPH) S^−1. The Km is 259 µM in series [1] (read-out: Km^CB1954); 30 µM in series [2] (read-out: Km^CB1954); 862 µM in series [3] (read-out: Km^CB1954); 170 µM in series [4] (read-out: Km^CB1954); 18 µM in series [5] (cofactor NADH); 140 µM in series [5] (cofactor NADPH).
